Measurements taken from EP1330254B1, “TREATMENT OF CANCERS BY APLIDINE IN CONJUNCTION WITH CARNITINE OR ACETYLCARNITINE” (priority 2000, dated 2002).
Starred links: 1 amine or outer side, 2 acyl side, 3 side chain; linkers in the order of their positions; H or OH if unused. Positions of bridges follow the written chain, without caps; N, C: chain ends. Non-standard residues stand in square brackets, D forms with d. Residues, ends and D or L forms follow the SMILES beside them. *: point of attachment. X1 = CC[C@H](C)[C@@H](N[*:1])[C@@H](O)CC(=O)O[C@H](C(=O)[C@H](C)C(=O)[*:2])C(C)C; NMeY = CN[C@@H](Cc1ccc(O)cc1)C(=O)O; dNMeL = CN[C@H](CC(C)C)C(=O)O; Pyruvoyl = CC(=O)C(=O)*

Assay: Phase I study, 24h continuous infusion every other week: toxicities
Type: in vivo, human
Procedure: A phase I and pharmacokinetic study of aplidine, given as a 24h continuous infusion every other week in patients with solid tumours and non-Hodgkin lymphoma
Characterisation of Muscular Toxicity (DLT)

[1] = 200 mcg/m^2/2wks, patients affected of 3
[2] = 400 mcg/m^2/2wks, patients affected of 3
[3] = 800 mcg/m^2/2wks, patients affected of 3
[4] = 1600 mcg/m^2/2wks, patients affected of 6
[5] = 3200 mcg/m^2/2wks, patients affected of 3
[6] = 4000 mcg/m^2/2wks, patients affected of 3
[7] = 5000 mcg/m^2/2wks, patients affected of 3
[8] = 6000 mcg/m^2/2wks, patients affected of 12
[9] = 7000 mcg/m^2/2wks, patients affected of 7

CC[C@H](C)[C@H]1NC(=O)[C@@H](NC(=O)[C@@H](CC(C)C)N(C)C(=O)[C@@H]2CCCN2C(=O)C(C)=O)[C@@H](C)OC(=O)[C@H](Cc2ccc(OC)cc2)N(C)C(=O)[C@@H]2CCCN2C(=O)[C@H](CC(C)C)NC(=O)[C@@H](C)C(=O)[C@H](C(C)C)OC(=O)C[C@@H]1O [aplidine, Dehydrodidemnin B] (Pyruvoyl-P[dNMeL]T[X1]LP[NMeY](Me); ester 3-C)
muscle biopsies, E/M (2 patients): partial disappearance of thick filaments of myosin
CPK elevations (3 patients (5000 and 6000 µg/m^2), CPK MM increase): minor elevations of CPKs (≥G2)
Nausea/vomiting G2 [1]: 2
Transaminitis G2 [1]: 1
Asthenia G2 [2]: 2
Hypertension G2 [2]: 1
Nausea/vomiting G2 [2]: 1
Flushing G1 [3]: 1
Muscle cramps G1+G2 [3]: 2
Asthenia G2 [4]: 2
Asthenia G3 [4]: 1
Muscle cramps G1+G2 [4]: 1
Nausea/vomiting G2 [4]: 4
Transaminitis G3 [4]: (1)
Asthenia G2 [5]: 1
Flushing G1 [5]: 1
Muscle cramps G1+G2 [5]: 2
Muscle pain G2 [5]: (1)
Nausea/vomiting G3 [5]: (1)
Asthenia G2 [6]: 1
Flushing G1 [6]: 1
Muscle cramps G1+G2 [6]: 2
Muscle pain G1 [6]: 2
Nausea/vomiting G2 [6]: 2
Pain central catheter G2 [6]: 2
Asthenia G3 [7]: (1)
CPK elevation G3 [7]: (1) [1]
CPK elevation G4 [7]: (1) [1]
Muscle cramps G1+G2 [7]: 2
Muscle pain G1 [7]: 1
Muscle weakness G1 [7]: 1
Nausea/vomiting G2 [7]: 1
Transaminitis G2 [7]: 1
dose limiting toxicity (drug induced muscular changes) (6000 mcg/m^2): 1/9
Asthenia G2 [8]: 6
CPK elevation G2 [8]: 1(1)
CPK elevation G3 [8]: 1(1)
Muscle cramps G1+G2 [8]: 1
Muscle pain G1 [8]: 1
Muscle pain G2 [8]: 2
Muscle weakness G1 [8]: 1(1)
Muscle weakness G2 [8]: 1(1)
Nausea/vomiting G2 [8]: 2
Asthenia G2 [9]: 2
CPK elevation G2 [9]: 1
Flushing G1 [9]: 1
Muscle pain G1 [9]: 1
Nausea/vomiting G2 [9]: 1
Neutrophenia G4 [9]: 1
Transaminitis G2 [9]: 1
toxicity recovered after treatment discontinuation (Pat #27, 6000 µg/m^2): ≤ 3 weeks
